Data reported in ChEMBL document CHEMBL1201862, “PubChem BioAssay data set” (2004).
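96-well plates; 48 h exposure; 5 concentrations. Endpoints by linear interpolation between flanking doses. Not reached: highest tested concentration assigned. Abbreviation: GI50, concentration required for 50% inhibition of growth.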 Calls of active or inactive are those of the source. Rule as the data show it: active = GI50 up to about 1.1 µM and inactive = higher.

Legend:
Experiment in all cases: growth of human tumour cells (NCI), 48 h
DMS-114 = tested on: DMS-114
HOP-18 = tested on: HOP-18
XF498 = tested on: XF498
KM-20L2 = tested on: KM-20L2
DMS-273 = tested on: DMS-273
SNB-78 = tested on: SNB-78
DLD-1 = tested on: DLD-1
LXFL 529 = tested on: LXFL 529
RXF 631 = tested on: RXF 631

Measured: GI50

CCS(=O)(=O)Nc1ccc(Nc2c3ccccc3nc3ccccc23)c(OC)c1
inactive: KM-20L2 1.43 µM | SNB-78 4.89 µM | DLD-1 2.56 µM
active: DMS-114 0.216 µM | HOP-18 0.809 µM | XF498 0.0223 µM | DMS-273 0.0324 µM

O=C(CC1(O)C(=O)Nc2c(Cl)cccc21)c1ccccc1 (stereo unspecified)
inactive: DMS-114 > 100 µM | HOP-18 > 100 µM | XF498 > 100 µM | KM-20L2 > 100 µM | DMS-273 > 100 µM | LXFL 529 > 100 µM | SNB-78 > 100 µM | DLD-1 > 100 µM

C[n+]1ccc2[nH]c3ccccc3c2c1
inactive: HOP-18 > 45 µM | KM-20L2 > 100 µM | DMS-273 > 100 µM | LXFL 529 > 100 µM | SNB-78 > 100 µM | DLD-1 > 100 µM

COc1cccc(/C=C2\CCC(C)(CN(C)C)C2=O)c1 (stereo unspecified)
inactive: DMS-114 69.3 µM | HOP-18 > 100 µM | XF498 > 100 µM | KM-20L2 23 µM | DMS-273 70.5 µM | SNB-78 > 100 µM | DLD-1 62.4 µM

CCOc1ccccc1NC(=O)CC1Sc2ccccc2NC1=O (stereo unspecified)
inactive: RXF 631 58.5 µM | HOP-18 53.2 µM | XF498 80.4 µM | KM-20L2 57.7 µM | DMS-273 48.6 µM | LXFL 529 59.2 µM | SNB-78 > 100 µM | DLD-1 75.7 µM

CN1C(c2ccccc2)CC(=Nc2ccccc2)CC1c1ccccc1 (stereo unspecified)
inactive: RXF 631 20.5 µM | KM-20L2 13.3 µM | DMS-273 8.79 µM | LXFL 529 4.46 µM | SNB-78 15 µM | DLD-1 10.6 µM

Cc1cc(Cl)ccc1NC(=O)CC1SC(Nc2ccccc2Cl)=NC1=O (stereo unspecified)
inactive: DMS-114 21.1 µM | RXF 631 45.6 µM | HOP-18 > 100 µM | XF498 62.1 µM | KM-20L2 26.8 µM | DMS-273 26.4 µM | LXFL 529 34.9 µM | SNB-78 49.5 µM | DLD-1 28.1 µM

CCC1=C(C)/C(=C/c2[nH]c(CBr)c(CC)c2C)N=C1CBr
inactive: DMS-114 7.21 µM | RXF 631 > 100 µM | HOP-18 11 µM | KM-20L2 11.4 µM | DMS-273 > 100 µM | LXFL 529 4.43 µM | DLD-1 12.4 µM

Cc1cc(/N=N/c2ccc(/N=N/c3c(O)c(S(=O)(=O)O)cc4cc(S(=O)(=O)O)ccc34)cc2C)ccc1/N=N/c1ccc2cc(S(=O)(=O)O)cc(S(=O)(=O)O)c2c1
inactive: DMS-114 > 100 µM | HOP-18 > 100 µM | XF498 > 73.5 µM | KM-20L2 54.8 µM | DMS-273 98.4 µM | SNB-78 > 100 µM | DLD-1 > 100 µM

C/C(=N\Nc1nnc(S)n1N)c1c(O)cc(C)oc1=O
inactive: HOP-18 > 100 µM | KM-20L2 > 100 µM | LXFL 529 > 100 µM | SNB-78 > 100 µM | DLD-1 > 100 µM

N#CNCC(COCc1ccccc1)c1ccccc1 (stereo unspecified)
inactive: DMS-114 53.2 µM | RXF 631 > 100 µM | HOP-18 > 100 µM | XF498 47.6 µM | KM-20L2 > 100 µM | DMS-273 94.4 µM

CCOc1ccc(OCC)c([P+](c2ccccc2)(c2ccccc2)c2ccccc2)c1
inactive: RXF 631 2.4 µM
active: DMS-114 0.245 µM | HOP-18 0.721 µM | XF498 0.0841 µM | KM-20L2 0.333 µM | DMS-273 0.236 µM | LXFL 529 0.198 µM | SNB-78 0.895 µM | DLD-1 0.548 µM

CC1=NN2C(c3ccc([N+](=O)[O-])cc3)=CSC2=NC(C)(C)C1
inactive: DMS-114 67.8 µM | RXF 631 > 100 µM | HOP-18 > 100 µM | XF498 > 100 µM | KM-20L2 > 100 µM | DMS-273 > 100 µM | LXFL 529 > 100 µM | SNB-78 > 100 µM | DLD-1 > 100 µM

CCc1ccccc1NC(=O)C1=C(C)NC(C)=C(C(=O)Nc2ccccc2CC)C1c1ccccc1Cl
active: XF498 0.152 µM
inactive: DMS-114 > 100 µM | KM-20L2 > 100 µM | LXFL 529 > 100 µM | SNB-78 > 100 µM | DLD-1 > 100 µM

CCOC(=O)C(Sc1ccccc1)c1c(OC)cc(=O)oc1/C=[N+](/[O-])c1ccc(N(C)C)cc1 (stereo unspecified)
inactive: DMS-114 19.4 µM | HOP-18 17.1 µM | XF498 14.6 µM | KM-20L2 31.8 µM | DMS-273 14 µM | LXFL 529 14.1 µM | SNB-78 27.1 µM | DLD-1 28.1 µM

C=C1CCC2C(C)(CO)C(O)CCC2(C)C1CC(O)/C(=C/CO)C(=O)O (stereo unspecified)
inactive: DMS-114 > 100 µM | RXF 631 > 100 µM | HOP-18 > 100 µM | KM-20L2 > 100 µM | DMS-273 > 100 µM | LXFL 529 > 100 µM | SNB-78 > 100 µM | DLD-1 > 100 µM

CC1=C(C(=O)Nc2ccccc2)C(c2ccccc2Cl)C(C(=O)Nc2ccccc2)=C(C)N1
inactive: RXF 631 36.1 µM | HOP-18 21.9 µM | KM-20L2 22.2 µM | DMS-273 20.8 µM | LXFL 529 17.6 µM | DLD-1 35.9 µM

CC(C)Cc1ccc(C(C)/C=C2\CCC(CN3CCOCC3)C2=O)cc1 (stereo unspecified)
inactive: DMS-114 13.4 µM | RXF 631 18.1 µM | HOP-18 7.87 µM | XF498 16.4 µM | KM-20L2 16.3 µM | LXFL 529 1.64 µM | SNB-78 20.9 µM | DLD-1 2.71 µM

Cc1nc2c(=O)n(C)c(=O)nc-2n(-c2ccc(Cl)cc2)c1C
inactive: DMS-114 > 100 µM | RXF 631 > 100 µM | HOP-18 > 100 µM | XF498 > 100 µM | KM-20L2 46.7 µM | DMS-273 > 100 µM | LXFL 529 62.7 µM | SNB-78 > 100 µM | DLD-1 85.9 µM

O=C1C(=O)N(c2ccc(Cl)c(Cl)c2)C(=O)C(=O)C1c1nc2ccccc2s1
inactive: DMS-114 > 100 µM | HOP-18 21.8 µM | KM-20L2 > 100 µM | DMS-273 > 100 µM | LXFL 529 > 100 µM | SNB-78 > 100 µM | DLD-1 > 100 µM

COC(=O)N/N=C(\C)c1sc(-c2nc(C)c(/C(C)=N/NC(=O)OC)s2)nc1C
inactive: DMS-114 42.2 µM | RXF 631 > 100 µM | HOP-18 > 100 µM | KM-20L2 > 100 µM | DMS-273 95.9 µM | LXFL 529 > 100 µM | SNB-78 62.7 µM | DLD-1 > 100 µM

COc1ccc(C(N)=O)c(OC)c1OCc1ccccc1
inactive: DMS-114 > 100 µM | KM-20L2 > 100 µM | DMS-273 > 100 µM | LXFL 529 > 100 µM | SNB-78 > 100 µM | DLD-1 > 100 µM

C[Si](C)(C)[C@@]1([Se]c2ccccc2)CC[C@@H]1C(=O)c1ccccc1
inactive: DMS-114 38.5 µM | RXF 631 > 100 µM | KM-20L2 71.8 µM | DMS-273 59.3 µM | LXFL 529 65.6 µM | SNB-78 > 100 µM | DLD-1 77.4 µM

COc1cccc(-n2c3nc(=O)n(C)c(=O)c-3nc3ccccc32)c1
inactive: DMS-114 5.11 µM | RXF 631 19.1 µM | HOP-18 42.9 µM | XF498 16.3 µM | KM-20L2 4.83 µM | DMS-273 6.95 µM | LXFL 529 21.6 µM | SNB-78 29.1 µM | DLD-1 25.2 µM
